Measurements as given in patent US20030086873A1, “Myocardial imaging agent and preparation method thereof” (priority 2001, published 2003).

How the values were obtained:
Type in all cases: in vivo
[1] = Dynamic SPECT imaging and biological distribution in dogs after intravenous injection; conditions: for Heart biological distribution / Kidneys biological distribution / Liver biological distribution / Lungs biological distribution: i.v.
Method: (§1) Dogs were intravenously injected with [^99mTc(CO)3(MIBI)3]^+ or [^99mTc(MIBI)6][…]at dose of […]. Immediately following injection, dynamic photography for up to 120 min was performed using a Toshiba GCA 7200A two-probe SPECT and a low energy parallel aperture regular collimator. Time—radioactivity curves were also collected for the heart, liver, lungs, and kidneys. Target/non-target radioactivity ratios were calculated, and fall body imaging was performed separately at different times. The biological distributions of the imaging agents in the body were analyzed. Vein blood samples were collected separately at different times, and the dynamics of the blood clearance was analyzed. Flat myocardial imaging was conducted separately at different times, with myocardial tomographic imaging at 120 minutes post injection.

[2] = Blood clearance kinetics in dogs (vein blood samples); conditions: intravenous administration, secondary model
Method: as §1

[3] = Biological distribution in the bodies of Kunming mice after caudal vein injection
Method: The complexes [^99mTc(CO)3(OH2)3]^+ and [^99mTc(CO)3(MIBI)3]^+ prepared in Example 1 were separately injected in the caudal vein of Kunming mice. The experiment was conducted on three mice within each time period, and the injection's activity was 925 KBq. The radioactivity of individual organs's tissue was measured at 5, 15, 30, and 60 minutes after the injection, and the results are represented by radioactive uptake rate per gram of tissue.
The results of the distribution of [^99mTc(CO)3(OH2)3]^+ in the mice's bodies are included in Tables 2; the results for [^99mTc(CO)3(MIBI)3]^+ are presented in Table 3. The value “% ID/g” is the percentage of the injection's total radioactivity that each gram of tissue accounts for i.e., the radioactive uptake rate per gram of tissue, with ID standing for “injected dose.”

Target/Non-Target Uptake Ratio Heart/Kidneys ([1]; 2 Minutes): 0.56 ± 0.13
Target/Non-Target Uptake Ratio Heart/Liver ([1]; 2 Minutes): 1 ± 0.18
Target/Non-Target Uptake Ratio Heart/Lungs ([1]; 2 Minutes): 2.51 ± 0.25
Target/Non-Target Uptake Ratio Heart/Kidneys ([1]; 5 Minutes): 0.53 ± 0.12
Target/Non-Target Uptake Ratio Heart/Liver ([1]; 5 Minutes): 0.98 ± 0.11
Target/Non-Target Uptake Ratio Heart/Lungs ([1]; 5 Minutes): 2.67 ± 0.27
Target/Non-Target Uptake Ratio Heart/Kidneys ([1]; 10 Minutes): 0.53 ± 0.1
Target/Non-Target Uptake Ratio Heart/Liver ([1]; 10 Minutes): 0.92 ± 0.13
Target/Non-Target Uptake Ratio Heart/Lungs ([1]; 10 Minutes): 2.6 ± 0.26
Target/Non-Target Uptake Ratio Heart/Kidneys ([1]; 20 Minutes): 0.59 ± 0.1
Target/Non-Target Uptake Ratio Heart/Liver ([1]; 20 Minutes): 0.97 ± 0.1
Target/Non-Target Uptake Ratio Heart/Lungs ([1]; 20 Minutes): 2.8 ± 0.44
Target/Non-Target Uptake Ratio Heart/Kidneys ([1]; 30 Minutes): 0.62 ± 0.15
Target/Non-Target Uptake Ratio Heart/Liver ([1]; 30 Minutes): 1.02 ± 0.11
Target/Non-Target Uptake Ratio Heart/Lungs ([1]; 30 Minutes): 2.96 ± 0.43
Target/Non-Target Uptake Ratio Heart/Kidneys ([1]; 40 Minutes): 0.58 ± 0.08
Target/Non-Target Uptake Ratio Heart/Liver ([1]; 40 Minutes): 1.06 ± 0.17
Target/Non-Target Uptake Ratio Heart/Lungs ([1]; 40 Minutes): 3 ± 0.51
Target/Non-Target Uptake Ratio Heart/Kidneys ([1]; 60 Minutes): 0.6 ± 0.06
Target/Non-Target Uptake Ratio Heart/Liver ([1]; 60 Minutes): 1.22 ± 0.2
Target/Non-Target Uptake Ratio Heart/Lungs ([1]; 60 Minutes): 3.05 ± 0.52
Target/Non-Target Uptake Ratio Heart/Kidneys ([1]; 90 Minutes): 0.6 ± 0.06
Target/Non-Target Uptake Ratio Heart/Liver ([1]; 90 Minutes): 1.25 ± 0.33
Target/Non-Target Uptake Ratio Heart/Lungs ([1]; 90 Minutes): 3.1 ± 0.49
Target/Non-Target Uptake Ratio Heart/Kidneys ([1]; 120 Minutes): 0.63 ± 0.04
Target/Non-Target Uptake Ratio Heart/Liver ([1]; 120 Minutes): 1.37 ± 0.26
Target/Non-Target Uptake Ratio Heart/Lungs ([1]; 120 Minutes): 3.09 ± 0.56
Heart biological distribution ([1]; 10 Minutes): 3.80 ± 0.44 % ID/g
Kidneys biological distribution ([1]; 10 Minutes): 15.33 ± 0.75 % ID/g
Liver biological distribution ([1]; 10 Minutes): 12.93 ± 0.70 % ID/g
Lungs biological distribution ([1]; 10 Minutes): 5.13 ± 0.06 % ID/g
Heart biological distribution ([1]; 20 Minutes): 3.97 ± 0.50 % ID/g
Kidneys biological distribution ([1]; 20 Minutes): 14.70 ± 1.14 % ID/g
Liver biological distribution ([1]; 20 Minutes): 14.00 ± 1.78 % ID/g
Lungs biological distribution ([1]; 20 Minutes): 4.70 ± 0.20 % ID/g
Heart biological distribution ([1]; 30 Minutes): 4.00 ± 0.30 % ID/g
Kidneys biological distribution ([1]; 30 Minutes): 14.53 ± 1.86 % ID/g
Liver biological distribution ([1]; 30 Minutes): 14.27 ± 1.97 % ID/g
Lungs biological distribution ([1]; 30 Minutes): 4.70 ± 0.26 % ID/g
Heart biological distribution ([1]; 40 Minutes): 3.73 ± 0.51 % ID/g
Kidneys biological distribution ([1]; 40 Minutes): 13.27 ± 1.65 % ID/g
Liver biological distribution ([1]; 40 Minutes): 16.37 ± 2.47 % ID/g
Lungs biological distribution ([1]; 40 Minutes): 4.80 ± 0.72 % ID/g
Heart biological distribution ([1]; 60 Minutes): 3.63 ± 0.49 % ID/g
Kidneys biological distribution ([1]; 60 Minutes): 12.23 ± 1.00 % ID/g
Liver biological distribution ([1]; 60 Minutes): 17.53 ± 2.85 % ID/g
Lungs biological distribution ([1]; 60 Minutes): 4.40 ± 0.44 % ID/g
Heart biological distribution ([1]; 90 Minutes): 3.77 ± 0.64 % ID/g
Kidneys biological distribution ([1]; 90 Minutes): 12.37 ± 1.75 % ID/g
Liver biological distribution ([1]; 90 Minutes): 19.67 ± 3.72 % ID/g
Lungs biological distribution ([1]; 90 Minutes): 4.20 ± 0.26 % ID/g
Heart biological distribution ([1]; 120 Minutes): 3.73 ± 0.58 % ID/g
Kidneys biological distribution ([1]; 120 Minutes): 12.40 ± 3.48 % ID/g
Liver biological distribution ([1]; 120 Minutes): 21.03 ± 2.78 % ID/g
Lungs biological distribution ([1]; 120 Minutes): 4.07 ± 0.15 % ID/g
Radioactivity in the liver compared with [^99mTc(MIBI)6]^+ ([1]; imaging, in words): clearly lower
Liver time-radioactivity curve relative to the myocardial curve ([1]; in words): lower than the myocardial curve
CL (blood clearance) [2]: 401.33 ± 73.51 mL/h
T(α)⅓ of blood clearance curve [2]: 1.33 ± 0.12 min
T(β)½ of blood clearance curve [2]: 102.33 ± 25.58 min
Target/Non-Target Uptake Ratio Heart/Blood ([3]; 5 Minutes): 20.99
Target/Non-Target Uptake Ratio Heart/Liver ([3]; 5 Minutes): 1.88
Target/Non-Target Uptake Ratio Heart/Lungs ([3]; 5 Minutes): 3.51
Blood radioactive uptake per gram of tissue ([3]; 5 Minutes after injection): 1.03 ± 0.21 % ID/g
Bones radioactive uptake per gram of tissue ([3]; 5 Minutes after injection): 3.72 ± 0.84 % ID/g
Brain radioactive uptake per gram of tissue ([3]; 5 Minutes after injection): 0.18 ± 0.02 % ID/g
Heart radioactive uptake per gram of tissue ([3]; 5 Minutes after injection): 21.62 ± 2.84 % ID/g
Kidneys radioactive uptake per gram of tissue ([3]; 5 Minutes after injection): 57.90 ± 1.80 % ID/g
Liver radioactive uptake per gram of tissue ([3]; 5 Minutes after injection): 11.48 ± 0.88 % ID/g
Lungs radioactive uptake per gram of tissue ([3]; 5 Minutes after injection): 6.16 ± 0.48 % ID/g
Muscles radioactive uptake per gram of tissue ([3]; 5 Minutes after injection): 7.08 ± 0.52 % ID/g
Spleen radioactive uptake per gram of tissue ([3]; 5 Minutes after injection): 6.26 ± 1.29 % ID/g
Target/Non-Target Uptake Ratio Heart/Blood ([3]; 15 Minutes): 64.47
Target/Non-Target Uptake Ratio Heart/Liver ([3]; 15 Minutes): 2.49
Target/Non-Target Uptake Ratio Heart/Lungs ([3]; 15 Minutes): 4.98
Blood radioactive uptake per gram of tissue ([3]; 15 Minutes after injection): 0.32 ± 0.05 % ID/g
Bones radioactive uptake per gram of tissue ([3]; 15 Minutes after injection): 2.10 ± 0.10 % ID/g
Brain radioactive uptake per gram of tissue ([3]; 15 Minutes after injection): 0.18 ± 0.02 % ID/g
Heart radioactive uptake per gram of tissue ([3]; 15 Minutes after injection): 20.63 ± 3.89 % ID/g
Kidneys radioactive uptake per gram of tissue ([3]; 15 Minutes after injection): 33.66 ± 0.42 % ID/g
Liver radioactive uptake per gram of tissue ([3]; 15 Minutes after injection): 8.28 ± 0.90 % ID/g
Lungs radioactive uptake per gram of tissue ([3]; 15 Minutes after injection): 4.14 ± 0.90 % ID/g
Muscles radioactive uptake per gram of tissue ([3]; 15 Minutes after injection): 3.78 ± 0.88 % ID/g
Spleen radioactive uptake per gram of tissue ([3]; 15 Minutes after injection): 3.84 ± 0.90 % ID/g
Target/Non-Target Uptake Ratio Heart/Blood ([3]; 30 Minutes): 86.54
Target/Non-Target Uptake Ratio Heart/Liver ([3]; 30 Minutes): 3.23
Target/Non-Target Uptake Ratio Heart/Lungs ([3]; 30 Minutes): 5.34
Blood radioactive uptake per gram of tissue ([3]; 30 Minutes after injection): 0.24 ± 0.07 % ID/g
Bones radioactive uptake per gram of tissue ([3]; 30 Minutes after injection): 1.94 ± 0.29 % ID/g
Brain radioactive uptake per gram of tissue ([3]; 30 Minutes after injection): 0.12 ± 0.01 % ID/g
Heart radioactive uptake per gram of tissue ([3]; 30 Minutes after injection): 20.77 ± 1.60 % ID/g
Kidneys radioactive uptake per gram of tissue ([3]; 30 Minutes after injection): 23.94 ± 2.11 % ID/g
Liver radioactive uptake per gram of tissue ([3]; 30 Minutes after injection): 6.44 ± 1.03 % ID/g
Lungs radioactive uptake per gram of tissue ([3]; 30 Minutes after injection): 3.89 ± 0.54 % ID/g
Muscles radioactive uptake per gram of tissue ([3]; 30 Minutes after injection): 6.14 ± 0.78 % ID/g
Spleen radioactive uptake per gram of tissue ([3]; 30 Minutes after injection): 2.84 ± 0.41 % ID/g
Target/Non-Target Uptake Ratio Heart/Blood ([3]; 60 Minutes): 149.15
Target/Non-Target Uptake Ratio Heart/Liver ([3]; 60 Minutes): 4.13
Target/Non-Target Uptake Ratio Heart/Lungs ([3]; 60 Minutes): 6.06
Blood radioactive uptake per gram of tissue ([3]; 60 Minutes after injection): 0.13 ± 0.04 % ID/g
Bones radioactive uptake per gram of tissue ([3]; 60 Minutes after injection): 1.42 ± 0.31 % ID/g
Brain radioactive uptake per gram of tissue ([3]; 60 Minutes after injection): 0.08 ± 0.01 % ID/g
Heart radioactive uptake per gram of tissue ([3]; 60 Minutes after injection): 19.39 ± 0.91 % ID/g
Kidneys radioactive uptake per gram of tissue ([3]; 60 Minutes after injection): 11.30 ± 0.73 % ID/g
Liver radioactive uptake per gram of tissue ([3]; 60 Minutes after injection): 4.69 ± 0.34 % ID/g
Lungs radioactive uptake per gram of tissue ([3]; 60 Minutes after injection): 3.20 ± 0.85 % ID/g
Muscles radioactive uptake per gram of tissue ([3]; 60 Minutes after injection): 4.42 ± 0.36 % ID/g
Spleen radioactive uptake per gram of tissue ([3]; 60 Minutes after injection): 1.62 ± 0.32 % ID/g
Concentration in livers ([3]; in words): comparatively low
Specific concentration in tissues / heart ([3]; in words): apparent concentration
heart:blood ratio compared with [^99mTc(MIBI)6]^+ ([3]; in words): comparable
heart:liver ratio compared with [^99mTc(MIBI)6]^+ ([3]; in words): higher
Radioactive retention ([3]; within 60 minutes, in words): good radioactive retention
Structure (SMILES): COC(C)(C)CN=[C]=[99Tc+](=[C]=O)(=[C]=O)(=[C]=O)(=[C]=NCC(C)(C)OC)=[C]=NCC(C)(C)OC [[^99mTc(CO)3(MIBI)3]^+]
